Laboratory results as given in patent publication US20070280915A1, “Combination Therapies Employing A Composition Comprising A Hmg Coa Reductase Inhibitor And A Vitamin B6 Related Compound” (priority 2003, published 2007).
Like-named read-outs stand apart in the source and are kept apart here.

Legend:
CYP3A4 = CYP3A4 (Homo sapiens, UniProt P08684); experiment: CYP3A4 inhibition assay (substrates BFC and BQ)
From the text: (§1) The CYP inhibition assays used microsomes (Supersomes®, Gentest Corp., Woburn, Mass.) prepared from insect cells, each expressing an individual CYP subtype (CYP1A2, CYP2A6, CYP2B6, CYP2C8, CYP2C9, CYP2C19, CYP2D6, CYP2E1 or CYP3A4) expressed from the corresponding human CYP cDNA using a baculovirus expression vector. The microsomes also incorporated supplemental cDNA-expressed human reductase and/or cytochrome b5, as these enzymes stimulate the activity of the CYPs, allowing for a reduction in the amount of enzyme required per reaction (Gentest Corp.). The assays monitored, via fluorescence detection, the formation of a fluorescent metabolite following incubation of the microsomes with a specific CYP substrate. […]
(§2) Eight inhibitor and test compound concentrations were tested using 3-fold serial dilutions. […] The amount of metabolic product formed was quantified by fluorescence detection in a fluorescence plate reader utilizing excitation and emission filters that had been optimized for the detection of each metabolite.
(§3) Data Analysis—The mean of the duplicate fluorescent signals in the presence and absence (vehicle control) of each compound was calculated and corrected for the background noise. […]

CYP2D6 = CYP2D6 (Homo sapiens, UniProt P10635); experiment: CYP2D6 inhibition assay (substrate AMMC); details: 0.0169 to […] tested, na = concentration-dependent inhibition not observed
From the text: as §1, §2, §3

CYP2B6 = molecular target: T1, CYP2B6 (Homo sapiens, UniProt P20813); experiment: CYP2B6 inhibition assay (substrate EFC); details: 0.0169 to […] tested, na = concentration-dependent inhibition not observed
T1 sequence (P20813 1-491): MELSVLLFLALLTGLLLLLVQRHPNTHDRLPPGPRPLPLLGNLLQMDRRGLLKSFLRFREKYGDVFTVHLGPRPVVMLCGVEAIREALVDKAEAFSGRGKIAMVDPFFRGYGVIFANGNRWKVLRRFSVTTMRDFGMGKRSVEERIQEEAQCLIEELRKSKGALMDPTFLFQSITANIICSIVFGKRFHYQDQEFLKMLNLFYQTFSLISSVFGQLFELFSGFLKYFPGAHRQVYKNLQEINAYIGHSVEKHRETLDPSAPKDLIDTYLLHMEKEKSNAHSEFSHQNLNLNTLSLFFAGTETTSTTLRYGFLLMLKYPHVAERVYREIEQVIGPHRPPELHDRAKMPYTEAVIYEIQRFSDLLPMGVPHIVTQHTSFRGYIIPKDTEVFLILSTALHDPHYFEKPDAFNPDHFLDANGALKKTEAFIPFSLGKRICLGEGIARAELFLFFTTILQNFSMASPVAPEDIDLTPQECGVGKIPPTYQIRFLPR
From the text: The CYP inhibition assays used microsomes (Supersomes®, Gentest Corp., Woburn, Mass.) prepared from insect cells, each expressing an individual CYP subtype (CYP1A2, CYP2A6, CYP2B6, CYP2C8, CYP2C9, CYP2C19, CYP2D6, CYP2E1 or CYP3A4) expressed from the corresponding human CYP cDNA using a baculovirus expression vector. The microsomes also incorporated supplemental cDNA-expressed human reductase and/or cytochrome b5, as these enzymes stimulate the activity of the CYPs, allowing for a reduction in the amount of enzyme required per reaction (Gentest Corp.). The assays monitored, via fluorescence detection, the formation of a fluorescent metabolite following incubation of the microsomes with a specific CYP substrate. […] Reactions (0.2 mL) were performed in 96-well microtitre plates at 37° C. in the presence of an NADPH regenerating system [NADP+, glucose-6-phosphate (G6P), glucose-6-phosphate dehydrogenase (G6PDH)] and MgCl2. […] All determinations were performed in duplicate. The reagent solutions used for all of the CYP subtype assays, except CYP2C19 and CYP3A4, were prepared by MBDI. For CYP2C19 and CYP3A4, complete reagent kits purchased from Gentest Corp. (CYP2C19/CEC: Cat. No. HTS-4000, Lot No. 1; CYP3A4/BFC: Cat. No. HTS-1000, Lot No. 1) were used to perform the assays.
as §2, with “dilutions. The microtitre plates containing 0.1 mL/well of the latter mixture were pre-warmed to 37° C. in an incubator.” for “dilutions.”
Data Analysis—The mean of the duplicate fluorescent signals in the presence and absence (vehicle control) of each compound was calculated and corrected for the background noise. Percent inhibition was calculated as the difference in the corrected fluorescent signals in the absence and presence of the compound, divided by the corrected fluorescent signal in the absence of compound, multiplied by 100%.

CYP1A2 = CYP1A2 (Homo sapiens, UniProt P05177); experiment: CYP1A2 inhibition assay (Supersomes, fluorescent metabolite, substrate CEC); details: 0.0169 to […] tested, na = concentration-dependent inhibition not observed
From the text: as §1, §2, §3

[1] = Effect of pyridoxal 5′-phosphate on fluorescence of the metabolic products of the CYP assays
Protocol: Prior to performing the CYP inhibition assays, the effect of pyridoxal 5′-phosphate on the fluorescence of the metabolic products measured in the assays was evaluated. The fluorescence of metabolite (one concentration, in duplicate) was measured in the absence (0 μM) and presence of 0.457 to 1000 μM pyridoxal 5′-phosphate. The concentrations and metabolic products measured were: 1 μM 3-cyano-7-hydroxycoumarin (CHC), 2.5 μM 7-hydroxycoumarin (7-HC), 2.5 μM 7-hydroxy-4-trifluoromethylcoumarin (HFC), 0.1 μM fluorescein, 10 μM 3-[2-(N,N-diethylamino)ethyl]-7-hydroxy-4-methylcoumarin (AHMC) and 10 μM quinolinol. The concentration of metabolite used was based on the expected maximum concentration of metabolite formed in the CYP inhibition assay (i.e. the concentration of metabolite measured following incubation substrate with the CYP subtype in the absence of an inhibitor). CHC is the fluorescent metabolite measured in the CYP1A2 and CYP2C19 assays. 7-HC is the fluorescent metabolite measured in the CYP2A6 assay, HFC is the fluorescent metabolite measured in the CYP2B6, CYP2C9, CYP2E1 and CYP3A4 (BFC as substrate) assays and fluorescein is the metabolite measured in the CYP2C8 assay. AHMC is the metabolite measured in the CYP2D6 assay and quinolinol is measured in the CYP3A4 (BQ as substrate) assay. […]

Sequence of CYP3A4 (P08684 whole entry): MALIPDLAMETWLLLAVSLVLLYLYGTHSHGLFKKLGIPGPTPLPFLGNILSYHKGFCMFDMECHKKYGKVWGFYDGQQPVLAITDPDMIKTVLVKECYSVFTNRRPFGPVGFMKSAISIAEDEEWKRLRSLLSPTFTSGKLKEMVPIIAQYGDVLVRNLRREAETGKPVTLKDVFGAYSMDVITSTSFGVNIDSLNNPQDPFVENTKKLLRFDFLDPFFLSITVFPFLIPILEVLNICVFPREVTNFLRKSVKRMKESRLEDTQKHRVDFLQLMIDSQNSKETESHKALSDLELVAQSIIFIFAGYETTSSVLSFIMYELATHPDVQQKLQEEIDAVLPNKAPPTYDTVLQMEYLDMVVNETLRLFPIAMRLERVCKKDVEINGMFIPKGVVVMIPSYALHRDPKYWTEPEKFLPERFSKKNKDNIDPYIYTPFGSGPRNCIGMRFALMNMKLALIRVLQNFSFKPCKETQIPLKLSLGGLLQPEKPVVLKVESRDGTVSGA
Sequence of CYP1A2 (P05177 whole entry): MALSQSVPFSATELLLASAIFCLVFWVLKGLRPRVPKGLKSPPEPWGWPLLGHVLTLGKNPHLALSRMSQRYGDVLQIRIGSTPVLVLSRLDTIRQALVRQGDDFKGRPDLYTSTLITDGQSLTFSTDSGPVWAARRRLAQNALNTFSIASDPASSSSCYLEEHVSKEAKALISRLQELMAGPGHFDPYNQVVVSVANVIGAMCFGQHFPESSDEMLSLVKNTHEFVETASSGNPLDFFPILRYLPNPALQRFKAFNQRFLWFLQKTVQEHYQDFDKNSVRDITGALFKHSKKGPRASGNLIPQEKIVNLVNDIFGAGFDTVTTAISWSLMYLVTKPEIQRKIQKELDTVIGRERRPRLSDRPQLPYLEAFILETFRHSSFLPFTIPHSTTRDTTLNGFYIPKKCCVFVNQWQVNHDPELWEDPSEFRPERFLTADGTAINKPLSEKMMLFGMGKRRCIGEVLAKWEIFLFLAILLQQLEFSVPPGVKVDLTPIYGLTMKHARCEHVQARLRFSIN
Sequence of CYP2D6 (P10635 whole entry): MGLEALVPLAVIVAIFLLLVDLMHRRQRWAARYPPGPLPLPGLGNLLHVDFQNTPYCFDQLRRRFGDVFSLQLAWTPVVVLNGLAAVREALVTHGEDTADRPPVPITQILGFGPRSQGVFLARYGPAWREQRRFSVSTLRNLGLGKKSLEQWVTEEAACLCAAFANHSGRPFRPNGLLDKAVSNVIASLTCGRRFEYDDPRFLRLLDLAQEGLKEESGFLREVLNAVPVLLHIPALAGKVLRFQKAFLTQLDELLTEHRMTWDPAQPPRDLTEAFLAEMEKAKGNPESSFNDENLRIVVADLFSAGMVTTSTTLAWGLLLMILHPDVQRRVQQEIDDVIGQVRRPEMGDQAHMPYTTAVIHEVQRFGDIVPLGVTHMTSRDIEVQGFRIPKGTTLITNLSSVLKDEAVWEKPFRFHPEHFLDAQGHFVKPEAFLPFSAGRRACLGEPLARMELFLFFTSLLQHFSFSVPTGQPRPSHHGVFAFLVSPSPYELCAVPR

In the case of `Cc1ncc(COP(=O)(O)O)c(C=O)c1O` [P5P, pyridoxal-5-phosphate], the IC50 (CYP3A4; read-out: Pyridoxal 5′-phosphate IC50, CYP3A4, substrate BQ, 0.0169 to […] tested) is reported as over 37 µM, the IC50 (CYP3A4; read-out: Pyridoxal 5′-phosphate IC50 for CYP3A4, CYP3A4, substrate not given) is reported as at least 37 µM and the “Pyridoxal 5′-phosphate IC50” value (CYP2D6) is reported as “did not inhibit”. The “Pyridoxal 5′-phosphate IC50” value (CYP2B6) was “did not inhibit”, the “Pyridoxal 5′-phosphate IC50” value (CYP1A2) was “did not inhibit” and the “concentration at which fluorescence of metabolites was significantly quenched” value ([1]; metabolites CHC, 7-HC, 7-HFC, AHMC and quinolinol, 0.457 to 1000 μM tested) was over 37 µM. The “effect on the fluorescence of fluorescein” value ([1]; up to 1000 μM, fluorescein is the CYP2C8 assay product) was “did not affect”.
